Data: patent US10588317B2, “Isoxazoline-substituted benzamides and analogues as insecticides” (priority 2015, dated 2020)

Columns and labels:
Assay type in all cases: in vivo
Tetranychus urticae = Tetranychus urticae (two-spotted spider mite): feeding/contact activity; settings: 192 h, application rate 200 ppm, mixed population (mobile stages), 8 days after infestation, read-out: mortality
Description: Bean leaf discs on agar in 24-well microtiter plates were sprayed with aqueous test solutions prepared from 10'000 ppm DMSO stock solutions. After drying the leaf discs were infested with a mite population of mixed ages. The samples were assessed for mortality on mixed population (mobile stages) 8 days after infestation.

Spodoptera littoralis [1] = experiment: Spodoptera littoralis (Egyptian cotton leaf worm), uptake by lettuce roots from agar; settings: 144 h, read-out: effect in at least one of the three categories (mortality, anti-feeding, or growth inhibition)
Source text: Test compounds were applied by pipette from 10'000 ppm DMSO stock solutions into 24-well plates and mixed with agar. Lettuce seeds were placed onto the agar and the multi well plate was closed by another plate which contained also agar. After 7 days the compound was absorbed by the roots and the lettuce grew into the lid plate. The lettuce leaves were then cut off into the lid plate. Spodoptera eggs were pipetted through a plastic stencil onto a humid gel blotting paper and the lid plate was closed with it. The samples were assessed for mortality, anti-feedant effect and growth inhibition in comparison to untreated samples 6 days after infestation.
The following compounds gave an effect of at least 80% in at least one of the three categories (mortality, anti-feeding, or growth inhibition) at a test rate of 12.5 ppm: […]

Thrips tabaci = Thrips tabaci (onion thrips): feeding/contact activity; settings: 144 h, application rate 200 ppm, Thrips population of mixed ages, 6 days after infestation, read-out: mortality
Description: Sunflower leaf discs were placed on agar in 24-well microtiter plates and sprayed with aqueous test solutions prepared from 10'000 ppm DMSO stock solutions. After drying the leaf discs were infested with a Thrips population of mixed ages. The samples were assessed for mortality 6 days after infestation.

Myzus persicae = Myzus persicae (green peach aphid): feeding/contact activity; settings: 144 h, application rate 200 ppm, aphid population of mixed ages, 6 days after infestation, read-out: mortality
Description: Sunflower leaf discs were placed onto agar in a 24-well microtiter plate and sprayed with aqueous test solutions prepared from 10'000 ppm DMSO stock solutions. After drying, the leaf discs were infested with an aphid population of mixed ages. The samples were assessed for mortality 6 days after infestation.

Spodoptera littoralis [2] = experiment: Spodoptera littoralis (Egyptian cotton leaf worm), sprayed cotton leaf discs; settings: foliar, 72 h, application rate 200 ppm, L1 larvae, 3 days after infestation, read-out: control (mortality, anti-feeding effect, growth inhibition)
Method in brief: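 Cotton leaf discs on agar sprayed with aqueous test solutions made from 10'000 ppm DMSO stock; after drying, infested with five L1 larvae. Mortality, anti-feeding and growth inhibition scored versus untreated samples 3 days after infestation; control counted when any category exceeds untreated.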

Plutella xylostella = Plutella xylostella (diamond back moth), artificial diet; settings: 120 h, application rate 200 ppm, L2 larvae, 5 days after infestation, read-out: effect in at least one of the two categories (mortality or growth inhibition)
Method in brief: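 Artificial diet in 24-well plates treated with aqueous test solutions made from 10'000 ppm DMSO stocks, dried, then infested with L2 larvae (10 to 15 per well). Mortality and growth inhibition scored against untreated samples 5 days after infestation; activity cut-off at least 80% in either category at 200 ppm.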

Euschistus heros = Euschistus heros (neotropical brown stink bug), sprayed soybean leaves; settings: 120 h, application rate 200 ppm, N2 nymphs, 5 days after infestation, read-out: effect in at least one of the two categories (mortality or growth inhibition)
Method in brief: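 Soybean leaves on agar sprayed with aqueous dilutions of DMSO stocks, dried, then infested with N2 nymphs. Mortality and growth inhibition scored against untreated samples 5 days after infestation; application rate 200 ppm.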

Diabrotica balteata = Diabrotica balteata (corn root worm), sprayed maize sprouts; settings: 96 h, application rate 200 ppm, L2 larvae, 4 days after infestation, read-out: effect in at least one of the two categories (mortality or growth inhibition)
Method in brief: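 Maize sprouts on agar sprayed with aqueous dilutions of DMSO stocks, dried, then infested with L2 larvae (6–10 per well). Mortality and growth inhibition scored against untreated controls 4 days after infestation, at 200 ppm application rate.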

Cc1cc(C2=NOC(c3cc(Cl)cc(Cl)c3)(C(F)(F)Cl)C2)ccc1C(=O)NC1CON(S(C)(=O)=O)C1 (stereo not drawn) [Compound A64]
≥ 80%: mortality at 200 ppm (Tetranychus urticae) | percent effect (mortality, anti-feeding or growth inhibition) at 12.5 ppm (Spodoptera littoralis [1]; test rate 12.5 ppm, eggs, 6 days after infestation) | mortality at 200 ppm (Thrips tabaci) | mortality at 200 ppm (Myzus persicae) | mortality at 200 ppm (Spodoptera littoralis [2]) | percent effect (mortality or growth inhibition) at 200 ppm (Plutella xylostella) | percent effect (mortality or growth inhibition) at 200 ppm (Euschistus heros) | percent effect (mortality or growth inhibition) at 200 ppm (Diabrotica balteata)

CCS(=O)(=O)N1C[C@@H](NC(=O)c2ccc(C3=NO[C@@](c4cc(Cl)c(F)c(Cl)c4)(C(F)(F)F)C3)cc2C)CO1 [Compound A119]
≥ 80%: mortality at 200 ppm (Tetranychus urticae) | percent control (mortality, anti-feedant effect or growth inhibition) at 12.5 ppm (Spodoptera littoralis [1]) | mortality at 200 ppm (Thrips tabaci) | mortality at 200 ppm (Myzus persicae) | mortality at 200 ppm (Spodoptera littoralis [2]) | percent effect (mortality or growth inhibition) at 200 ppm (Plutella xylostella) | percent effect (mortality or growth inhibition) at 200 ppm (Euschistus heros) | percent effect (mortality or growth inhibition) at 200 ppm (Diabrotica balteata)

CNS(=O)(=O)N1C[C@@H](NC(=O)c2ccc(C3=NO[C@@](c4cc(Cl)cc(Cl)c4)(C(F)(F)F)C3)cc2Cl)CO1 [Compound A114, 2-chloro-4-[(5S)-5-(3,5-dichlorophenyl)-5-(trifluoromethyl)-4H-isoxazol-3-yl]-N-[(4R)-2-(methylsulfamoyl)isoxazolidin-4-yl]benzamide]
≥ 80%: mortality at 200 ppm (Tetranychus urticae) | percent control (mortality, anti-feedant effect or growth inhibition) at 12.5 ppm (Spodoptera littoralis [1]) | mortality at 200 ppm (Thrips tabaci) | mortality at 200 ppm (Myzus persicae) | mortality at 200 ppm (Spodoptera littoralis [2]) | percent effect (mortality or growth inhibition) at 200 ppm (Plutella xylostella) | percent effect (mortality or growth inhibition) at 200 ppm (Euschistus heros) | percent effect (mortality or growth inhibition) at 200 ppm (Diabrotica balteata)

Cc1cc(C2=NO[C@@](c3cc(Cl)c(F)c(Cl)c3)(C(F)(F)F)C2)ccc1C(=O)NC1CON(S(=O)(=O)NC(C)(C)C)C1 (stereo partly drawn) [Compound A97]
≥ 80%: mortality at 200 ppm (Tetranychus urticae) | percent control (mortality, anti-feedant effect or growth inhibition) at 12.5 ppm (Spodoptera littoralis [1]) | mortality at 200 ppm (Thrips tabaci) | mortality at 200 ppm (Myzus persicae) | mortality at 200 ppm (Spodoptera littoralis [2]) | percent effect (mortality or growth inhibition) at 200 ppm (Plutella xylostella) | percent effect (mortality or growth inhibition) at 200 ppm (Euschistus heros) | percent effect (mortality or growth inhibition) at 200 ppm (Diabrotica balteata)

CNS(=O)(=O)N1C[C@@H](NC(=O)c2ccc(C3=NO[C@@](c4cc(Cl)c(Cl)c(Cl)c4)(C(F)(F)F)C3)cc2C)CO1 [Compound A67, 2-methyl-N-[(4R)-2-(methylsulfamoyl)isoxazolidin-4-yl]-4-[(5S)-5-(3,4,5-trichlorophenyl)-5-(trifluoromethyl)-4H-isoxazol-3-yl]benzamide]
≥ 80%: mortality at 200 ppm (Tetranychus urticae) | percent control (mortality, anti-feedant effect or growth inhibition) at 12.5 ppm (Spodoptera littoralis [1]) | mortality at 200 ppm (Thrips tabaci) | mortality at 200 ppm (Myzus persicae) | mortality at 200 ppm (Spodoptera littoralis [2]) | percent effect (mortality or growth inhibition) at 200 ppm (Plutella xylostella) | percent effect (mortality or growth inhibition) at 200 ppm (Euschistus heros) | percent effect (mortality or growth inhibition) at 200 ppm (Diabrotica balteata)

Cc1cc(C2=NO[C@@](c3cc(Cl)cc(C(F)(F)F)c3)(C(F)(F)F)C2)ccc1C(=O)N[C@H]1CON(S(=O)(=O)N(C)C)C1 [Compound A91]
≥ 80%: mortality at 200 ppm (Tetranychus urticae) | percent control (mortality, anti-feedant effect or growth inhibition) at 12.5 ppm (Spodoptera littoralis [1]) | mortality at 200 ppm (Thrips tabaci) | mortality at 200 ppm (Myzus persicae) | mortality at 200 ppm (Spodoptera littoralis [2]) | percent effect (mortality or growth inhibition) at 200 ppm (Plutella xylostella) | percent effect (mortality or growth inhibition) at 200 ppm (Euschistus heros) | percent effect (mortality or growth inhibition) at 200 ppm (Diabrotica balteata)

CCNS(=O)(=O)N1C[C@@H](NC(=O)c2ccc(C3=NO[C@@](c4cc(Cl)cc(Cl)c4)(C(F)(F)F)C3)cc2C)CO1 [Compound A135, 4-[(5S)-5-(3,5-dichlorophenyl)-5-(trifluoromethyl)-4H-isoxazol-3-yl]-N-[(4R)-2-(ethylsulfamoyl)isoxazolidin-4-yl]-2-methyl-benzamide]
≥ 80%: mortality at 200 ppm (Tetranychus urticae) | percent control (mortality, anti-feedant effect or growth inhibition) at 12.5 ppm (Spodoptera littoralis [1]) | mortality at 200 ppm (Thrips tabaci) | mortality at 200 ppm (Myzus persicae) | mortality at 200 ppm (Spodoptera littoralis [2]) | percent effect (mortality or growth inhibition) at 200 ppm (Plutella xylostella) | percent effect (mortality or growth inhibition) at 200 ppm (Euschistus heros) | percent effect (mortality or growth inhibition) at 200 ppm (Diabrotica balteata)

Cc1cc(C2=NO[C@@](c3cc(Cl)c(F)c(Cl)c3)(C(F)(F)F)C2)ccc1C(=O)NC1CON(S(=O)(=O)CCl)C1 (stereo partly drawn) [Compound A5, N-[2-(chloromethylsulfonyl)isoxazolidin-4-yl]-4-[(5S)-5-(3,5-dichloro-4-fluoro-phenyl)-5-(trifluoromethyl)-4H-isoxazol-3-yl]-2-methyl-benzamide]
≥ 80%: mortality at 200 ppm (Tetranychus urticae) | percent control (mortality, anti-feedant effect or growth inhibition) at 12.5 ppm (Spodoptera littoralis [1]) | mortality at 200 ppm (Thrips tabaci) | mortality at 200 ppm (Myzus persicae) | mortality at 200 ppm (Spodoptera littoralis [2]) | percent effect (mortality or growth inhibition) at 200 ppm (Plutella xylostella) | percent effect (mortality or growth inhibition) at 200 ppm (Euschistus heros) | percent effect (mortality or growth inhibition) at 200 ppm (Diabrotica balteata)

C=CCN(C)S(=O)(=O)N1CC(NC(=O)c2ccc(C3=NO[C@@](c4cc(Cl)c(Cl)c(Cl)c4)(C(F)(F)F)C3)cc2C)CO1 (stereo partly drawn) [Compound A82, N-[2-[allyl(methyl)sulfamoyl]isoxazolidin-4-yl]-2-methyl-4-[(5S)-5-(3,4,5-trichlorophenyl)-5-(trifluoromethyl)-4H-isoxazol-3-yl]benzamide]
≥ 80%: mortality at 200 ppm (Tetranychus urticae) | percent control (mortality, anti-feedant effect or growth inhibition) at 12.5 ppm (Spodoptera littoralis [1]) | mortality at 200 ppm (Thrips tabaci) | mortality at 200 ppm (Myzus persicae) | mortality at 200 ppm (Spodoptera littoralis [2]) | percent effect (mortality or growth inhibition) at 200 ppm (Plutella xylostella) | percent effect (mortality or growth inhibition) at 200 ppm (Euschistus heros) | percent effect (mortality or growth inhibition) at 200 ppm (Diabrotica balteata)

CCN(C)S(=O)(=O)N1C[C@@H](NC(=O)c2ccc(C3=NO[C@@](c4cc(Cl)cc(C(F)(F)F)c4)(C(F)(F)F)C3)cc2Cl)CO1 [Compound A130, 2-chloro-4-[(5S)-5-[3-chloro-5-(trifluoromethyl)phenyl]-5-(trifluoromethyl)-4H-isoxazol-3-yl]-N-[(4R)-2-[ethyl(methyl)sulfamoyl]isoxazolidin-4-yl]benzamide]
≥ 80%: mortality at 200 ppm (Tetranychus urticae) | percent control (mortality, anti-feedant effect or growth inhibition) at 12.5 ppm (Spodoptera littoralis [1]) | mortality at 200 ppm (Thrips tabaci) | mortality at 200 ppm (Myzus persicae) | mortality at 200 ppm (Spodoptera littoralis [2]) | percent effect (mortality or growth inhibition) at 200 ppm (Plutella xylostella) | percent effect (mortality or growth inhibition) at 200 ppm (Euschistus heros) | percent effect (mortality or growth inhibition) at 200 ppm (Diabrotica balteata)

CCN(C)S(=O)(=O)N1C[C@@H](NC(=O)c2ccc(C3=NO[C@@](c4cc(Cl)c(Cl)c(Cl)c4)(C(F)(F)F)C3)cc2C)CO1 [Compound A72, N-[(4R)-2-[ethyl(methyl)sulfamoyl]isoxazolidin-4-yl]-2-methyl-4-[(5S)-5-(3,4,5-trichlorophenyl)-5-(trifluoromethyl)-4H-isoxazol-3-yl]benzamide]
≥ 80%: mortality at 200 ppm (Tetranychus urticae) | percent control (mortality, anti-feedant effect or growth inhibition) at 12.5 ppm (Spodoptera littoralis [1]) | mortality at 200 ppm (Thrips tabaci) | mortality at 200 ppm (Myzus persicae) | mortality at 200 ppm (Spodoptera littoralis [2]) | percent effect (mortality or growth inhibition) at 200 ppm (Plutella xylostella) | percent effect (mortality or growth inhibition) at 200 ppm (Euschistus heros) | percent effect (mortality or growth inhibition) at 200 ppm (Diabrotica balteata)

Cc1cc(C2=NOC(c3cc(Cl)c(Br)c(Cl)c3)(C(F)(F)F)C2)ccc1C(=O)NC1CON(S(C)(=O)=O)C1 (stereo not drawn) [Compound A45]
≥ 80%: mortality at 200 ppm (Tetranychus urticae) | percent control (mortality, anti-feedant effect or growth inhibition) at 12.5 ppm (Spodoptera littoralis [1]) | mortality at 200 ppm (Thrips tabaci) | mortality at 200 ppm (Myzus persicae) | mortality at 200 ppm (Spodoptera littoralis [2]) | percent effect (mortality or growth inhibition) at 200 ppm (Plutella xylostella) | percent effect (mortality or growth inhibition) at 200 ppm (Euschistus heros) | percent effect (mortality or growth inhibition) at 200 ppm (Diabrotica balteata)
